Experimental data from paper PMC5706701, “Development of a homogenous high-throughput assay for inositol hexakisphosphate kinase 1 activity” (PLoS ONE, 2017).
Counter-ions that a name gives are not always drawn.

Molecular target: T1, Human IP6K1 (Homo sapiens, UniProt Q92551)
T1 construct: GST (N, cleaved yes); made in house; host or cells: C43 E. coli, pGEX-6P-2
Assay: IP6K1 high-throughput screen of the Sigma LOPAC (ADP-Glo Max, single point);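 further: final compound concentration 10µM in 5% DMSO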
Type: biochemical

[1] = LOPAC single-point screen, ADP-Glo Max raw signal per well
[2] = LOPAC single-point screen, Z-score from raw signal with plate average and StDev
[3] = Sigma LOPAC single-point screen, ADP-Glo Max raw signal per well
[4] = Sigma LOPAC single-point screen, Z-score from plate average and StDev
[5] = LOPAC single-point screen, Z-score against plate average and StDev
[6] = LOPAC single-point screen, ADP-Glo Max luminescence raw signal per well
[7] = LOPAC single-point screen, Z-score relative to plate average and StDev

T1 sequence (Q92551 whole entry): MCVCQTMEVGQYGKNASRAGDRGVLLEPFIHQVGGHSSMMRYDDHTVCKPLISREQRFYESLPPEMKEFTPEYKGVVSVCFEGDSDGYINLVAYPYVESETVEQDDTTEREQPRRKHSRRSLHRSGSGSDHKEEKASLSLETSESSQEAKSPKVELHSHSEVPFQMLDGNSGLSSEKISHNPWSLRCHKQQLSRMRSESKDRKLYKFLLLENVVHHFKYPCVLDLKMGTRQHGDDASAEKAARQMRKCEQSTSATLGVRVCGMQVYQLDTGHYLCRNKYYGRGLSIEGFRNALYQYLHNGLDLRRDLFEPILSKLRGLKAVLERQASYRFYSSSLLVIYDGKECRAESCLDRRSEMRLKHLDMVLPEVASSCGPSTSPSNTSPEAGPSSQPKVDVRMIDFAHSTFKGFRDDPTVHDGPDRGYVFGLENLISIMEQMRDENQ

Q: For `Cl.Nc1cc(Cl)c(N=C2NCCN2)c(Cl)c1` [p-Aminoclonidine hydrochloride], which “Raw Signal” value [1] is on record?
A: The value was 56073.

Q: What about the Z-score [2] of the same molecule?
A: Its Z-score is -0.3241.

Q: Which “Raw Signal” value [1] does the source give for `Cl.c1ccc2sc(C3(N4CCCCC4)CCCCC3)cc2c1` [BTCP hydrochloride] here?
A: Its value is 55871.

Q: And the Z-score [2]?
A: Its Z-score is -0.3597.

Q: Which “Raw Signal” value [3] does the source give for `O=c1onc2cnc3ccccc3n12` [ODQ] here?
A: Its value is 60819.

Q: What about the Z-score [4] of the same molecule?
A: The Z-score was 1.08.

Q: With `CCOC(=O)C(C)(C)Oc1ccc(Cl)cc1` [Clofibrate] as the molecule, how does the “Raw Signal” value [1] read?
A: The value was 58171.

Q: What about the Z-score [5] of the same molecule?
A: The Z-score was 0.04542.

Q: Which results are given for `COCCCC/C(=N\OCCN)c1ccc(C(F)(F)F)cc1` [Fluvoxamine maleate]?
A: Raw Signal [3]: 56948; Z-score [4]: 0.3617

Q: Which results are given for `C[N+]1(C)[C@@H]2C[C@@H](OC(=O)[C@H](CO)c3ccccc3)C[C@H]1[C@@H]1O[C@@H]12` [(-)-Scopolamine methyl bromide]?
A: Raw Signal [1]: 55432; Z-score [2]: -0.115

Q: Which results are given for `O=C1N(c2ccccc2)c2ccccc2C1(Cc1ccncc1)Cc1ccncc1` [Linopirdine]?
A: Raw Signal [1]: 55241; Z-score [5]: 0.1424

Q: `COc1cc(OC)c(C=C2C(O)=Nc3ccccc32)c(OC)c1` [IC 261] was tested. Which “Raw Signal” value [1] did it give?
A: Its value is 54461.

Q: What about the Z-score [2] of the same molecule?
A: Its Z-score is -0.3036.

Q: How did the “Raw Signal” value [6] turn out when `CC(C)(C)[C@]1(O)CCN2C[C@H]3c4ccccc4CCc4cccc(c43)[C@@H]2C1` [(+)-Butaclamol hydrochloride] was run?
A: The value was 54506.

Q: And the Z-score [7]?
A: Its Z-score is -0.6001.

Q: Which results are given for `CC(N/C(=N\C#N)Nc1ccncc1)C(C)(C)C` (stereo not shown) [Pinacidil]?
A: Raw Signal [1]: 55394; Z-score [2]: -0.1224

Q: `CC(C)(C)c1ccc(S(=O)(=O)/C=C/C#N)cc1` [Bay 11-7085] was tested. Which “Raw Signal” value [1] did it give?
A: The value was 58167.

Q: And the Z-score [5]?
A: Its Z-score is 0.04472.

Q: `CCCCCCCCCCCCCC(=O)O[C@@H]1[C@@H](C)[C@@]2(O)[C@@H](C=C(CO)C[C@]3(O)C(=O)C(C)=C[C@@H]23)[C@@H]2C(C)(C)[C@]12OC(C)=O` [Phorbol 12-myristate 13-acetate] was tested. Which “Raw Signal” value [1] did it give?
A: The value was 57693.

Q: What about the Z-score [5] of the same molecule?
A: Its Z-score is 0.3243.

Q: For `CN1C(C)(C)CCCC1(C)C` [Pempidine tartrate], which “Raw Signal” value [3] is on record?
A: The value was 56899.

Q: What about the Z-score [4] of the same molecule?
A: Its Z-score is 0.421.

Q: With `CC(C[N+](C)(C)C)OC(N)=O` (stereo not shown) [Bethanechol chloride] as the molecule, how does the “Raw Signal” value [1] read?
A: The value was 59240.

Q: What about the Z-score [5] of the same molecule?
A: The Z-score was 0.2337.

Q: Which results are given for `CCCCCC(O)CCCC(=O)O.[Na]` (stereo not shown) [5-hydroxydecanoic acid sodium]?
A: Raw Signal [1]: 53435; Z-score [2]: -0.3518

Q: For `CCn1cc(C(=O)O)c(=O)c2ccc(Cc3ccccc3)nc21` [Amfonelic acid], which Z-score [2] is on record?
A: The Z-score was -0.107.

Q: Which results are given for `CN(C)CCCN1c2ccccc2CCc2ccc(Cl)cc21` [Clomipramine hydrochloride]?
A: Raw Signal [3]: 60543; Z-score [4]: 0.4632

Q: What does the source list for `COC(=O)[C@@H](N)Cc1ccc(O)c(O)c1.Cl`?
A: Raw Signal [6]: 38457; Z-score [7]: -3.394

Q: Which “Raw Signal” value [6] does the source give for `CC(=O)Nc1nnc(S(N)(=O)=O)s1` [Acetazolamide] here?
A: Its value is 54920.

Q: What about the Z-score [7] of the same molecule?
A: The Z-score was -0.5272.

Q: Which “Raw Signal” value [6] does the source give for `N#CC(C#N)=C(N)/C(C#N)=C/c1cc(O)c(O)c(O)c1` [Tyrphostin 51] here?
A: The value was 44032.

Q: What about the Z-score [7] of the same molecule?
A: Its Z-score is -2.33.

Q: How did the “Raw Signal” value [1] turn out when `CC[C@H](C)[C@H]1O[C@]2(CC[C@@H]1C)C[C@@H]1C[C@@H](C/C=C(\C)[C@@H](O[C@H]3C[C@H](OC)[C@@H](O[C@H]4C[C@H](OC)[C@@H](O)[C@H](C)O4)[C@H](C)O3)[C@@H](C)/C=C/C=C3\CO[C@@H]4[C@H](O)C(C)=C[C@@H](C(=O)O1)[C@]34O)O2` [Ivermectin] was run?
A: Its value is 51728.

Q: What about the Z-score [2] of the same molecule?
A: The Z-score was -0.4479.

Q: `CC(NCCc1ccc(O)cc1)C(O)c1ccc(O)cc1` (stereo not shown) [Ritodrine hydrochloride] was tested. Which “Raw Signal” value [3] did it give?
A: Its value is 59316.

Q: And the Z-score [4]?
A: Its Z-score is 0.6396.

Q: What does the source list for `CC(C)(C(=O)O)c1ccc(C(O)CCCN2CCC(C(O)(c3ccccc3)c3ccccc3)CC2)cc1` (stereo not shown) [Fexofenadine hydrochloride]?
A: Raw Signal [3]: 58731; Z-score [4]: 0.7238

Q: Which results are given for `N[C@H](C(=O)O)c1cc(O)cc(O)c1` [(S)-3,5-Dihydroxyphenylglycine]?
A: Raw Signal [6]: 63204; Z-score (LOPAC single-point screen, Z-score from plate average and StDev): 1.632

Q: With `CNC(=O)[C@H]1O[C@@H](n2cnc3c(NCc4cccc(I)c4)nc(Cl)nc32)[C@H](O)[C@@H]1O` [Chloro-IB-MECA] as the molecule, how does the “Raw Signal” value [6] read?
A: Its value is 50053.

Q: And the Z-score [7]?
A: Its Z-score is -1.039.
